Test results as given in patent US11771729B2, “Maca extract and use thereof” (KAOHSIUNG MEDICAL UNIVERSITY, priority 2021, dated 2023).
Marks after values point to notes of the source that are not given here.

Columns and labels:
RBL-2H3 cells [1] = assay: Anti-allergy test: antigen-induced β-hexosaminidase release; type: cell-based
Protocol: (§1) Equivalently divided supernatants (50 μL) of control wells and experimental wells were incubated with an equal volume (50 μL) of […] p-NAG prepared in 0.1 M citrate buffer (pH 4.5), in which the buffer is formed as a matrix of released β-hexosaminidase; the reaction, after 1 hour incubation at 37° C., was stopped by adding 100 μL of termination buffer (0.1M Na2/NaHCO3, pH 10.0), and then, the absorbance at a wavelength of 405 nm was measured with a microplate reader. The percentage of inhibiting RBL-2H3 cells from releasing β-hexosaminidase was calculated as the percentage of control (untreated stimulated cells), and azelastine (20 μM) was used as a positive control. The test results are shown in Tables 4 to 6 below, and the corresponding results are indicated as mean±SEM (the test was repeated 3 times), wherein * denotes p<0.05, ** denotes p<0.01, *** denotes p<0.001; - denotes being untested; and N/A denotes that the specimen forms mycelium added to the medium, and accordingly, the results cannot be proven.

RBL-2H3 cells [2] = assay: Cell viability of RBL-2H3 cells (MTT); conditions: for Viability of RBL-2H3 cells at 200 μg/ml: Table 6, isolated compounds, head prints 200 μg/ml
Protocol: Cells were cultured using DMEM medium supplemented with 10% FBS, and additional 100 U/mL penicillin and 100 μg/mL streptomycin. The cells were cultured in 10 cm Petri dishes in a 5% CO2 incubator at 37° C., the cells were secondary cultured in 80% confluent trypsin, and then seeded on culture plates at a density of 2×10^5 cells/mL for secretion measurement.
Measurement on cell viability: RBL-2H3 cells were seeded in a 96-well plate at a concentration of 2×10^4 cells/well overnight, specimens having different concentrations (that is, maca extract, dissolved in DMSO) or untreated controls (1% DMSO in Tyrode buffer; 135 mM NaCl, 5 mM KCl, 1.8 mM CaCl, 1.0 mM MgCl2, 5.6 mM glucose, 20 mM HEPES and 1 mg/ml BSA, pH 7.4) were used to treat the cells, the media was removed from the wells after incubation at 37° C., 5% CO2, and an MTT solution (5 mg/mL) stock solution was diluted 1:10 in the medium and then added to the wells (100 μL per well); Thereafter, the cells were incubated at 37° C., 5% CO2 for 1 hours, the medium was removed, the formed Formazan crystals (which can be formed only in normal healthy cells) were dissolved in 100 μL DMSO, and the absorbance at 574 nm wavelength was measured using a microplate reader in which the plates were gently shaked before the measurement. Cell viability values for the specimens were calculated and indicated as a percentage (%) of the control groups (untreated cells).

RBL-2H3 cells [3] = assay: Anti-allergy test: A23187-induced β-hexosaminidase release; type: cell-based
Protocol: as §1

human neutrophil [4] = assay: Anti-neutrophil inflammation test: elastase release; type: cell-based; conditions: isolated compounds (10 μM) and positive controls 10 μM, fMLF/CB-activated neutrophils, mean±SEM; for inhibition at 10 µM: Homo sapiens, Neutrophil, read-out: Inhibition rate (%) Elastase release
Protocol: (§2) Isolation of human neutrophil: According to the standard scheme of […] sedimentation, neutrophils was obtained from peripheral blood, and then, the neutrophils were purified by centrifugation and erythrocyte hypotonic degradation in a Ficoll-Hypaque gradient; and then, it was confirmed by the trypan blue exclusion test that the purified neutrophils contained more than 98% live cells, and the purified neutrophils were suspended in HBSS without calcium at 4° C. (Yang et al., 2013) prior to the test.
The elastase release was used to measure degranulation of azurophilic granules in activated neutrophils (Yang et al., 2013); and the measurement was performed using methoxysuccinyl-Ala-Ala-Pro-Val-p-nitroaniline as an elastase matrix. At 37° C., neutrophils (6×10^5 cells/mL) were added to a mixture of matrix (100 μmol/L) and CaCl2 (1 mmol/L), and treated with the test specimens having different concentrations (that is, maca extract) or DMSO (0.1% as control) for 5 minutes, and then the cells were stimulated by using fMLF (100 nM)/CB (0.5 μg/mL), and changes in absorbance at the 405 nm wavelength were continuously monitored to measure the release of elastase, in which genistein and LY294002 were used as positive controls. The corresponding results are indicated as mean±SEM (the test was repeated 3 or 4 times), in which * denotes p<0.05, ** denotes p<0.01, *** denotes p<0.001; and - denotes being untested.

human neutrophil [5] = assay: Anti-neutrophil inflammation test: superoxide anion generation; type: cell-based; conditions: isolated compounds (10 μM) and positive controls 10 μM, fMLF/CB-activated neutrophils, mean±SEM; for inhibition at 10 µM: Homo sapiens, Neutrophil, read-out: Inhibition rate (%) Superoxide anion generation
Protocol: as §2
The level of superoxide anion generation by neutrophil activation was measured and determined based on the ferrocytochrome c reduction method according to Yang et al., 2013. In other words, human neutrophil cells (6×10^5 cells/mL) were mixed with 0.6 mg/mL of ferrocytochrome c and 1 mmol/L of CaCl at 37° C., and then the cells were treated with the test specimens having different concentrations (that is, maca extract) or DMSO (0.1% as control) for 5 minutes; thereafter, 10 minutes before activation with 100 nM of fMLF, the cells were incubated with cytochalasin B (1 μg/mL) for 3 minutes, changes in absorbance according to the decrease in ferrocytochrome c at a wavelength of […] with continuous stirring were continuously monitored using a spectrophotometer, and reactions were calculated with and without superoxide dismutase (SOD, 100 U/mL) with dividing by the extinction coefficient of the decreased ferrocytochrome c (21.1 mM^−1 cm^−1) reduction, thereby obtaining the difference value.

[6] = system: human CD34-positive endothelial progenitor cells (EPC); assay: Pro-angiogenic test: EPC cell growth; type: cell-based; conditions: mean±SEM
Protocol: (§3) Endothelial cell culture: Isolation and culture of human CD34-positive endothelial progenitor cells (EPC) were performed using conventional methods (Chen et al., 2018); human umbilical vein endothelial cells (HUVECs) were purchased from Promo Cell (Heidelberg, Germany); and EPCs and HUVECs were maintained in MV2 medium according to a known protocol (Chung et al., 2013).
(§4) Measurement of cell growth: EPCs and HUVECs were cultured overnight at a density of 5×10^3 cells per well in a 96-well plate, and then, in the presence of the test specimen (that is, maca extract), the original medium was replaced with MV2 minimal medium and incubated for 48 hours. The measurements on EPC cell growth were as described in Yang et al., 2019.
(§5) The results are shown in Table 1 as below, in which corresponding results are indicated as mean±SEM (the test was repeated 3 times as a whole), wherein, compared to the control group (DSMO), * denotes p<0.05, ** denotes p<0.01, *** denotes p<0.001; and - denotes being untested.

[7] = system: human umbilical vein endothelial cells (HUVECs); assay: Pro-angiogenic test: HUVEC cell growth; type: cell-based; conditions: VEGF 20 ng/mL, positive control, mean±SEM
Protocol: as §3, §4, §5

[8] = 50 μM of each isolated compound, 48 hours

Compound: CN1CCCC(n2nc(Cc3ccc(Cl)cc3)c3ccccc3c2=O)CC1 (centres unmarked) [Azelastine, reference compound]
- inhibition at 20 µM (RBL-2H3 cells [1]; RBL-2H3, azelastine 20 μM, positive control, read-out: Percentage of inhibiting antigen-induced β-hexosaminidase release (%)): 54.3 ± 1.8%
- Viability of RBL-2H3 cells (RBL-2H3 cells [2]; azelastine 20 μM): 88.0%
- inhibition at 20 µM (RBL-2H3 cells [3]; RBL-2H3, azelastine 20 μM, positive control, read-out: Percentage of inhibiting A23187-induced β-hexosaminidase release (%)): 47.7 ± 3.2%

Compound: O=c1cc(N2CCOCC2)oc2c(-c3ccccc3)cccc12 [LY294002, reference compound]
- inhibition at 10 µM (human neutrophil [4]): 72.8 ± 4.03%
- inhibition at 10 µM (human neutrophil [5]): 95.3 ± 2.78%

Compound: N#CCc1cccc(O)c1 [Compound 8, 3-hydroxy-1-cyanomethylbenzene]
- inhibition at 10 µM (RBL-2H3 cells [1]; RBL-2H3, read-out: Percentage of inhibiting antigen-induced β-hexosaminidase release (%) 10 μM/mL): 13.7 ± 3.9%
- inhibition at 100 µM (RBL-2H3 cells [1]; RBL-2H3, read-out: Percentage of inhibiting antigen-induced β-hexosaminidase release (%) 100 μM/mL): 13 ± 2.6%
- inhibition at 500 µM (RBL-2H3 cells [1]; RBL-2H3, read-out: Percentage of inhibiting antigen-induced β-hexosaminidase release (%) 500 μM/mL): 4 ± 3.3%
- Viability of RBL-2H3 cells at 200 μg/ml (RBL-2H3 cells [2]): 97.7%
- Cell growth rate (%) EPC [6, 8]: 103 ± 2%
- inhibition at 10 µM (RBL-2H3 cells [3]; RBL-2H3, read-out: Percentage of inhibiting A23187-induced β-hexosaminidase release (%) 10 μM/mL): 11 ± 0.8%
- inhibition at 100 µM (RBL-2H3 cells [3]; RBL-2H3, read-out: Percentage of inhibiting A23187-induced β-hexosaminidase release (%) 100 μM/mL): 8.3 ± 3.4%
- inhibition at 500 µM (RBL-2H3 cells [3]; RBL-2H3, read-out: Percentage of inhibiting A23187-induced β-hexosaminidase release (%) 500 μM/mL): 11.7 ± 1.5%
- inhibition at 10 µM (human neutrophil [4]): 1.78 ± 2.29%
- inhibition at 10 µM (human neutrophil [5]): 0.45 ± 4.35%

Compound: O=Cc1ccc(CO)n1Cc1ccccc1 [Compound 6, 5-hydroxymethyl-1-(benzyl)-2-aldehyde pyrrole]
- Percentage of inhibiting antigen-induced β-hexosaminidase release (%) 10 μM/mL (RBL-2H3 cells [1]; 10 μM/mL): 10.3 ± 3.9%
- Percentage of inhibiting antigen-induced β-hexosaminidase release (%) 100 μM/mL (RBL-2H3 cells [1]; 100 μM/mL): 3.7 ± 3.0%
- Percentage of inhibiting antigen-induced β-hexosaminidase release (%) 500 μM/mL (RBL-2H3 cells [1]; 500 μM/mL): 0.3 ± 0.3%
- Antigen-induced β-hexosaminidase release Inhibition rate (%) (RBL-2H3 cells [1]; Table 4, isolated compounds, concentration not given): 3.7 ± 3.0%
- Viability of RBL-2H3 cells at 200 μg/ml (RBL-2H3 cells [2]): 100.0%
- Cell growth rate (%) EPC [6, 8]: 104 ± 4%
- Percentage of inhibiting A23187-induced β-hexosaminidase release (%) 10 μM/mL (RBL-2H3 cells [3]; 10 μM/mL): 5.7 ± 1.0%
- Percentage of inhibiting A23187-induced β-hexosaminidase release (%) 100 μM/mL (RBL-2H3 cells [3]; 100 μM/mL): 9.7 ± 2.2%
- Percentage of inhibiting A23187-induced β-hexosaminidase release (%) 500 μM/mL (RBL-2H3 cells [3]; 500 μM/mL): 26.0 ± 2.4%***
- A23187-induced β-hexosaminidase release Inhibition rate (%) (RBL-2H3 cells [3]; Table 4, isolated compounds, concentration not given (values equal 100 μM column of Table 6)): 9.7 ± 2.2%
- Inhibition rate (%) Elastase release (human neutrophil [4]): 2.69 ± 0.49** %
- Inhibition rate (%) Superoxide anion generation (human neutrophil [5]): 5.44 ± 2.18%

Compound: VEGF
- Cell growth rate (%) HUVEC [7]: 122 ± 2*** %
- Cell growth rate (%) EPC ([6]; VEGF 20 ng/mL, positive control): 128 ± 2*** %
